Assays:
[1] = tested on: MCF-7 (human breast adenocarcinoma cell line); assay: MTT cytotoxicity assay, MCF-7; format: cell-based; conditions: Homo sapiens, MCF7, MCF-7 cell line, read-out: IC50 against MCF-7
Procedure: (§1) The anticancer activity of compounds 5a–5o were screened according to the MTT assays. The MTT assays were performed as previously described[32]^,[33]. Anticancer activity of final compounds was assessed against five different cancer cell lines A549 (lung carcinoma cell line), HeLa (cervical cell line), MCF-7 (human breast adenocarcinoma cell line), HepG2 (human liver carcinoma cell line) and C6 (rat glioma cell line) cell lines as well as NIH3T3 (mouse embryo fibroblast cell line). Doxorubicin and Hoechst 33342 were used as the reference drugs in the MTT assays.
(§2) The benzimidazole-1,3,4-oxadiazole derivatives (5a-5o) were tested their cytotoxic effects in vitro using five cancer cell line A549 (lung carcinoma cell line), HeLa (cervical cell line), MCF-7 (human breast adenocarcinoma cell line), HepG2 (human liver carcinoma cell line) and C6 (rat glioma cell line) cell lines as well as NIH3T3 (mouse embryo fibroblast cell line). Doxorubicin and Hoechst 33342 were used for this study as a reference drugs.

[2] = tested on: C6 (rat glioma cell line); assay: MTT cytotoxicity assay, C6; format: cell-based; conditions: Rattus norvegicus, read-out: IC50 against C6
Procedure: as §1, §2

[3] = tested on: A549 (lung carcinoma cell line); assay: MTT cytotoxicity assay, A549; format: cell-based; conditions: Homo sapiens, A549, MTT assay, read-out: IC50 against A549
Procedure: as §1, §2

Topoisomerase I = target: T1, Topoisomerase I (Homo sapiens, UniProt P11387); assay: DNA topoisomerase I assay (relaxation of supercoiled plasmid DNA, agarose gel); format: biochemical; conditions: agarose gel electrophoresis, camptothecin positive control, Figure 12
T1 construct: purchased TopoGen TG1018-2
T1 sequence (P11387 1-765): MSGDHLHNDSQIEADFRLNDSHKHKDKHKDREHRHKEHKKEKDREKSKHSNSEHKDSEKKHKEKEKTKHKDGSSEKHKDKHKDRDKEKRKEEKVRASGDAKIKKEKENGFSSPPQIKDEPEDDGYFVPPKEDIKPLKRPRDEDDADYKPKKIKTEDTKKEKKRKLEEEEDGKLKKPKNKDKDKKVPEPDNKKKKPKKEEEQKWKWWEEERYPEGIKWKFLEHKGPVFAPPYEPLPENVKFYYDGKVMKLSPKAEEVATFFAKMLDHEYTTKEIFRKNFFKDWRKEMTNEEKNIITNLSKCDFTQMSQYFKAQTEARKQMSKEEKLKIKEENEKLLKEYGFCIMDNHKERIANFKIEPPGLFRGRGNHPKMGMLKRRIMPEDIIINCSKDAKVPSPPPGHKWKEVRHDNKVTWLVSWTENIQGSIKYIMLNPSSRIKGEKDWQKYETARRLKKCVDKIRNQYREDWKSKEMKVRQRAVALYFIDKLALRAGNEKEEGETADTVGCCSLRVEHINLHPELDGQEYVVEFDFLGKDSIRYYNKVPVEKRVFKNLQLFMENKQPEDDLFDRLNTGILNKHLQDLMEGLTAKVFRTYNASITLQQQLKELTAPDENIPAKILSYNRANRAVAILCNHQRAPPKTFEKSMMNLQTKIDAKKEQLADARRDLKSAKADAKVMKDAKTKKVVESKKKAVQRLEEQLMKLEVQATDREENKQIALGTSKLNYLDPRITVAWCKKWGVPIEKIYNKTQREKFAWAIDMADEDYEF
Procedure: The topoisomerase I inhibition activities of final compounds were measured as relaxation of supercoiled plasmid DNA using agarose gel electrophoresis and camptothecin was used as a positive control. The assay was carried out in a final volume of 20 µl reaction volume containing 2 µl of 10xTGS Buffer, 6 µl water, 2 µl supercoiled plasmid DNA, 2 µl test compound, 2 µl of Top1, 2 ul 10% SDS, 2 µl proteinase K, 2 µl DNA loading dye. After incubation of reaction mixtures at 37 °C for 30 min, electrophoresis was done on a 1% agarose gel at a potential 50 V for 75 min using 1xTAE buffer.
To determine whether the DNA intercalation properties of compounds 5a, 5b, 5d, 5e, 5k, 5l, 5n and 5o might result in Topo I inhibition, agarose gel electrophores is assay was performed to evaluate the Topo I inhibitory activity of them via agarose-gel electrophoresis and CPT was used as the positive control. The TopoGEN Topoisomerase I Drug Screening Kit were optimised and implemented to accomplish this goal.
In a previous studies, it was said that the compounds poisoning topoisomerase caused the formation of nick bands in such gel appearances, while the formation of Supercoiled bands was said to be caused by catalytic inhibitors that bound to either DNA or enzyme[40]^,[41].

C6 cell line = assay: Flow cytometric analysis (Annexin V/PI), C6; format: cell-based, rat; conditions: at IC50 concentrations
Procedure: Death pathway of the carcinogenic cell lines was detected by Annexin V-FITC Apoptosis Detection Kit (BD, Pharmingen) as reported previously described. […] FCS Express software was used to display the percent of normal and apoptotic cells at different stages. […] The experiments were carried out in triplicates.
Annexin V/PI staining on tested cancer cells treated with the active compounds was performed to investigate induction of apoptosis. […] According to the MTT assay, compound 5n for A549 cell line; compounds 5a, 5d, 5e, 5o for MCF-7 cell line; compound 5k for C6 cell line; compound 5a for HepG2 cell line; compounds 5b, 5l and 5n for HeLa cell line were selected for the flow cytometric analysis. Furthermore, flow cytometry studies were performed for reference drug doxorubicin. Flow cytometric analysis diagrams of tested compounds and doxorubicin at IC50/2, IC50, and 2xIC50 concentrations on cancer cells were presented in Figures 7–11.

[4] = tested on: NIH3T3 (mouse embryo fibroblast cell line); assay: MTT cytotoxicity assay, NIH3T3 healthy cells; format: cell-based; conditions: Mus musculus, read-out: IC50 against NIH3T3
Procedure: The anticancer activity of compounds 5a–5o were screened according to the MTT assays. The MTT assays were performed as previously described[32]^,[33]. Anticancer activity of final compounds was assessed against five different cancer cell lines A549 (lung carcinoma cell line), HeLa (cervical cell line), MCF-7 (human breast adenocarcinoma cell line), HepG2 (human liver carcinoma cell line) and C6 (rat glioma cell line) cell lines as well as NIH3T3 (mouse embryo fibroblast cell line). Doxorubicin and Hoechst 33342 were used as the reference drugs in the MTT assays. It is crucial that an anticancer agent affects the cancer cell line but having minimal or no side-effect on healthy cells. For this purpose, the cytotoxic effects of the active compounds on the NIH3T3 cell line were investigated (Table 2).

C6 cells = assay: DNA synthesis inhibition assay (BrdU), C6; format: cell-based, rat; conditions: lower dose (IC50/2), 48 h vs 24 h incubation
Procedure: The BrdU cell proliferation method was performed to analyse the effects of the active compounds on proliferation of cancer cells. Cancer cells were seeded into the 96-well plates at a density of 1 × 10^4 cells. Compounds were added into the each well at three different concentrations (IC50/2, IC50 and 2xIC50) and the plates were incubated for 24 h. At the end of the incubation period, BrdU solution was added and cells were reincubated for 2 h at 37 °C. Anti-BrdU-POD ([…]) was added and the mixture was incubated for 90 min. Microplates were washed with PBS for three times. After adding substrate solution, the mixture was incubated for 15 min. OD of the wells were determined at 492 nm. Proliferation of control cells was assessed as 100% and growth inhibition % of cells, treated with test compounds and […] were calculated.
According to the MTT assay, compound 5n for A549 cell line; compounds 5a, 5d, 5e, 5o for MCF-7 cell line; compound 5k for C6 cell line; compound 5a for HepG2 cell line; compounds 5b, 5l and 5n for HeLa cell line were selected for the DNA synthesis inhibition assay. A549, C6, MCF-7, HepG2 and HeLa cells were incubated with three different concentrations (IC50/2, IC50, and […]) of the compounds for 24 and 48 h time periods. […] Doxorubicin was used as positive control.

[5] = tested on: HepG2 (human liver carcinoma cell line); assay: MTT cytotoxicity assay, HepG2; format: cell-based; conditions: Homo sapiens, read-out: IC50 against HepG2
Procedure: as §1, §2

[6] = tested on: HeLa (cervical cell line); assay: MTT cytotoxicity assay, HeLa; format: cell-based; conditions: Homo sapiens, read-out: IC50 against HeLa
Procedure: as §1, §2

CCOc1ccc(-c2nc3ccc(-c4nnc(SCC(=O)N5CCN(C)CC5)o4)cc3[nH]2)cc1 [5k, 2-((5-(2-(4-Ethoxyphenyl)-1H-benzo[d]imidazol-6-yl)-1,3,4-oxadiazol-2-yl)thio)-1–(4-methyl-piperazin-1-yl)-ethane-1-on]
IC50 [1]: 38.7 ± 1.88 µM | IC50 [2]: 3.2 ± 0.152 µM | IC50 [3]: 22.3 ± 1.05 µM | Topo I inhibition activity (Topoisomerase I): potent topo I inhibition activity | percentage of apoptotic cells (C6 cell line): 12.3% | IC50 [4]: 74.6 ± 3.63 µM | DNA synthesis inhibition at 48 h relative to 24 h (C6 cells): eight times higher | IC50 [5]: ≥ 100 µM | IC50 [6]: 11.2 ± 0.467 µM
